Structures can show the parent of a compound that is named as a salt.
Each compound was assayed on MT4 (assay: Inhibition of cell culture in MT-4 cells). Details: Homo sapiens, read-out: CIC95.
Type: functional
Work on `NC(=O)c1[nH]c2ccc(Cl)cc2c1Sc1ccccc1` yielded an IC95 of 200 nM. Work on `CNC(=O)c1[nH]c2ccccc2c1Sc1ccccc1` yielded an IC95 of 800 nM. For `CCNc1cccnc1N1CCN(C(=O)c2cc3cc(OC)ccc3[nH]2)CC1` [ATEVIRDINE MESYLATE], the IC95 was 3000 nM. In the case of `CN(C)C(=O)c1[nH]c2ccccc2c1Sc1ccccc1`, the IC95 is reported as greater than 3000 nM. `COC(=O)c1[nH]c2ccc(Cl)cc2c1Sc1ccccc1` gave an IC95 of 1500 nM. `CCc1cc(NCc2nc3c(Cl)ccc(Cl)c3o2)c(O)nc1C` [L-697661] gave an IC95 of 50 nM. In the case of `[O-][S+](Cc1[nH]c2ccc(Cl)cc2c1Sc1ccccc1)c1ccccc1` (stereo not given), the IC95 is reported as 800 nM. `NC(=O)c1[nH]c2ccc(Cl)cc2c1S(=O)(=O)c1ccccc1` [L-737126] showed an IC95 of 3 nM. `CNC(=O)c1[nH]c2ccc(Cl)cc2c1Sc1ccccc1` gave an IC95 of 200 nM. With `[O-][S+](Cc1[nH]c2ccccc2c1[S+]([O-])c1ccccc1)c1ccccc1` (stereo not given) the IC95 was greater than 3000 nM. `CC(C)=CCN1Cc2cc(Cl)cc3[nH]c(=S)n(c23)C[C@@H]1C` gave an IC95 of 400 nM. For `Cc1ccnc2c1NC(=O)c1cccnc1N2C1CC1` [NEVIRAPINE], the IC95 was 400 nM. `[O-][S+](Cc1[nH]c2ccccc2c1Sc1ccccc1)c1ccccc1` (stereo not given) was tested, and the IC95 was 400 nM. `NC(=O)c1[nH]c2ccc(Cl)cc2c1[S+]([O-])c1ccccc1` (stereo not given) was tested, and the IC95 was 200 nM. `COC(=O)c1[nH]c2ccccc2c1Sc1ccccc1` was tested, and the IC95 was greater than 3000 nM.

Source: ChEMBL document CHEMBL1126659, “5-chloro-3-(phenylsulfonyl)indole-2-carboxamide: a novel, non-nucleoside inhibitor of HIV-1 reverse transcriptase” (J Med Chem, 1993)
